From ChEMBL document CHEMBL3425496, “Exploring experimental and computational markers of cyclic peptides: Charting islands of permeability” (Eur J Med Chem, 2015)
Square brackets hold non-standard residues; d marks the D form. Peptide text beside a SMILES is read from it. NMeW = CN[C@@H](Cc1c[nH]c2ccccc12)C(=O)O; NMeY = CN[C@@H](Cc1ccc(O)cc1)C(=O)O; NMeL = CN[C@@H](CC(C)C)C(=O)O; dNMeL = CN[C@H](CC(C)C)C(=O)O

Key:
[1] = Apparent permeability of the compound at 50 uM after 5 hrs by PAMPA method; assay type: physicochemical
[2] = Apparent permeability from apical to basolateral side in human Caco2 cells by LC-MS analysis; assay type: ADME, cell-based; conditions: Caco-2

Row | Papp at 5 h, 50 µM [1] | Papp A→B [2] | Compound
1 | 0.01 ×10⁻⁶ cm/s | 0.09 ×10⁻⁶ cm/s | CC(C)C[C@@H]1NC(=O)[C@@H](Cc2ccccc2)NC(=O)CNC(=O)[C@@H](C)NC(=O)[C@H](Cc2ccc(O)cc2)NC(=O)[C@@H]2CCCN2C1=O
2 | 0.02 ×10⁻⁶ cm/s | 0.04 ×10⁻⁶ cm/s | CC(C)C[C@@H]1NC(=O)[C@H](Cc2ccccc2)NC(=O)[C@H]([C@@H](C)O)NC(=O)CNC(=O)[C@H]([C@@H](C)O)NC(=O)[C@H](Cc2ccc(O)cc2)NC1=O (cyclo(FLYTGT))
3 | 0.01 ×10⁻⁶ cm/s | < 0.14 ×10⁻⁶ cm/s | CC(C)C[C@H]1NC(=O)[C@@H](Cc2ccccc2)NC(=O)CNC(=O)[C@H](C)NC(=O)[C@H](Cc2ccc(O)cc2)NC(=O)[C@@H]2CCCN2C1=O
4 | 1.31 ×10⁻⁶ cm/s | 11.3 ×10⁻⁶ cm/s | CC(C)C[C@@H]1NC(=O)[C@H](Cc2ccc(O)cc2)N(C)C(=O)[C@H]2CCCN2C(=O)[C@H](CC(C)C)NC(=O)[C@H](CC(C)C)N(C)C(=O)[C@@H](CC(C)C)NC1=O
5 | 0.03 ×10⁻⁶ cm/s | < 0.14 ×10⁻⁶ cm/s | CC(C)C[C@H]1NC(=O)[C@@H](Cc2ccccc2)NC(=O)CN(C)C(=O)[C@H](C)N(C)C(=O)[C@H](Cc2ccc(O)cc2)NC(=O)[C@@H]2CCCN2C1=O
6 | 0.08 ×10⁻⁶ cm/s | 0.93 ×10⁻⁶ cm/s | C[C@@H](O)[C@@H]1NC(=O)[C@H](CCCCN)NC(=O)[C@@H](Cc2c[nH]c3ccccc23)NC(=O)[C@H](Cc2ccccc2)NC(=O)[C@@H]2CCCN2C(=O)[C@H](Cc2ccccc2)NC1=O
7 | 0.1 ×10⁻⁶ cm/s | 14.7 ×10⁻⁶ cm/s | CC(C)C[C@@H]1NC(=O)[C@@H](CC(C)C)N(C)C(=O)[C@@H](CC(C)C)N(C)C(=O)[C@H](Cc2ccc(O)cc2)NC(=O)[C@@H]2CCCN2C(=O)[C@@H](CC(C)C)N(C)C1=O
8 | 0.01 ×10⁻⁶ cm/s | 0.11 ×10⁻⁶ cm/s | CC(C)C[C@@H]1NC(=O)CNC(=O)[C@@H]2CCCN2C(=O)[C@H](Cc2ccc(O)cc2)NC(=O)[C@H](Cc2ccccc2)NC(=O)[C@@H]2CCCN2C1=O (cyclo(FYPGLP))
9 | < 0.01 ×10⁻⁶ cm/s | < 0.14 ×10⁻⁶ cm/s | C[C@@H]1NC(=O)[C@H](C)N(C)C(=O)[C@H](C)NC(=O)[C@H](C)N(C)C(=O)[C@H](C)NC(=O)[C@@H](C)NC1=O
10 | 0.67 ×10⁻⁶ cm/s | 11.9 ×10⁻⁶ cm/s | CC(C)C[C@@H]1NC(=O)[C@@H](CC(C)C)N(C)C(=O)[C@@H](CC(C)C)N(C)C(=O)[C@H](Cc2ccc(O)cc2)NC(=O)[C@@H]2CCCN2C(=O)[C@@H](CC(C)C)NC1=O
11 | 0.07 ×10⁻⁶ cm/s | 0.58 ×10⁻⁶ cm/s | CC(C)C[C@H]1NC(=O)[C@H](Cc2ccccc2)NC(=O)CNC(=O)[C@@H](C)NC(=O)[C@H](Cc2ccc(O)cc2)NC(=O)[C@@H]2CCCN2C1=O
12 | 0.01 ×10⁻⁶ cm/s | 0.02 ×10⁻⁶ cm/s | CC(C)C[C@@H]1NC(=O)CNC(=O)[C@H](Cc2ccccc2)NC(=O)[C@H](CC(N)=O)NC(=O)[C@H](Cc2ccc(O)cc2)NC(=O)[C@H](C)NC1=O (cyclo(AYNFGL))
13 |  | 6.82 ×10⁻⁶ cm/s | CC(C)C[C@H]1C(=O)N2CCC[C@H]2C(=O)N[C@@H](Cc2ccccc2)C(=O)N[C@@H](Cc2ccccc2)C(=O)N[C@@H](Cc2c[nH]c3ccccc23)C(=O)N[C@@H](C(C)C)C(=O)N1C (cyclo(FFWV[NMeL]P))
14 | 0.41 ×10⁻⁶ cm/s | 12 ×10⁻⁶ cm/s | CC(C)C[C@@H]1NC(=O)[C@H](Cc2ccccc2)NC(=O)[C@@H](CC(C)C)N(C)C(=O)[C@H](CC(C)C)N(C)C(=O)[C@H](Cc2ccc(O)cc2)NC(=O)[C@@H]2CCCN2C1=O
15 | 1.88 ×10⁻⁶ cm/s | 16.4 ×10⁻⁶ cm/s | CC(C)C[C@@H]1C(=O)N(C)[C@H](CC(C)C)C(=O)N[C@H](CC(C)C)C(=O)N(C)[C@@H](CC(C)C)C(=O)N2CCC[C@H]2C(=O)N[C@@H](Cc2ccc(O)cc2)C(=O)N1C
16 | 1.29 ×10⁻⁶ cm/s | 9.13 ×10⁻⁶ cm/s | CC(C)C[C@@H]1NC(=O)[C@@H](CC(C)C)NC(=O)[C@H](CC(C)C)NC(=O)[C@H](Cc2ccc(O)cc2)N(C)C(=O)[C@H]2CCCN2C(=O)[C@H](CC(C)C)NC1=O (cyclo(LL[dP][NMeY]L[dL]))
17 | 1.52 ×10⁻⁶ cm/s | 15.8 ×10⁻⁶ cm/s | CC(C)C[C@@H]1C(=O)N(C)[C@@H](CC(C)C)C(=O)N(C)[C@@H](CC(C)C)C(=O)N2CCC[C@@H]2C(=O)N[C@@H](Cc2ccc(O)cc2)C(=O)N(C)[C@@H](CC(C)C)C(=O)N1C
18 | 3.33 ×10⁻⁶ cm/s | 9.46 ×10⁻⁶ cm/s | CC(C)C[C@@H]1NC(=O)[C@H](Cc2c[nH]c3ccccc23)NC(=O)[C@H]2CCCN2C(=O)[C@@H](CC(C)C)NC(=O)[C@@H](CC(C)C)NC(=O)[C@@H](CC(C)C)NC1=O
19 | 0.37 ×10⁻⁶ cm/s | 0.24 ×10⁻⁶ cm/s | CC(C)C[C@@H]1NC(=O)[C@H](C(C)C)NC(=O)[C@H](Cc2c[nH]c3ccccc23)NC(=O)[C@H](Cc2ccccc2)NC(=O)[C@H](Cc2ccccc2)NC(=O)[C@@H]2CCCN2C1=O (cyclo(FFWVLP))

Row | Papp at 5 h, 50 µM [1] | Papp A→B [2] | Compound
20 | 3.83 ×10⁻⁶ cm/s | 21.8 ×10⁻⁶ cm/s | CC(C)C[C@@H]1NC(=O)[C@H](Cc2ccc(O)cc2)NC(=O)[C@@H]2CCCN2C(=O)[C@@H](CC(C)C)NC(=O)[C@@H](CC(C)C)N(C)C(=O)[C@@H](CC(C)C)N(C)C1=O
21 | 0.41 ×10⁻⁶ cm/s | 3.06 ×10⁻⁶ cm/s | CC[C@H](C)[C@@H]1NC(=O)[C@H](Cc2c[nH]c3ccccc23)NC(=O)[C@H]2CCCN2C(=O)[C@H]([C@@H](C)CC)NC(=O)[C@H]([C@@H](C)CC)NC(=O)[C@@H](CC(C)C)NC1=O
22 | 0.02 ×10⁻⁶ cm/s | 0.72 ×10⁻⁶ cm/s | CC(C)C[C@@H]1NC(=O)[C@@H](CC(C)C)NC(=O)[C@H](Cc2ccccc2)NC(=O)CNC(=O)[C@@H](C)NC(=O)[C@H](Cc2ccc(O)cc2)NC1=O
23 |  | < 0.14 ×10⁻⁶ cm/s | CC(C)C[C@H]1C(=O)N2CCC[C@H]2C(=O)N[C@@H](Cc2ccc(O)cc2)C(=O)N(C)[C@H](C)C(=O)N(C)CC(=O)N[C@@H](Cc2ccccc2)C(=O)N1C
24 | 0.01 ×10⁻⁶ cm/s | 0.06 ×10⁻⁶ cm/s | CC[C@H](C)[C@@H]1NC(=O)[C@H](Cc2ccc(O)cc2)NC(=O)[C@H](Cc2ccccc2)NC(=O)CNC(=O)[C@H](C(C)C)NC(=O)CNC1=O (cyclo(FYIGVG))
25 | 0.14 ×10⁻⁶ cm/s | < 0.14 ×10⁻⁶ cm/s | CC(C)C[C@H]1C(=O)N2CCC[C@H]2C(=O)N[C@@H](Cc2ccc(O)cc2)C(=O)N(C)[C@H](C)C(=O)N(C)CC(=O)N[C@H](Cc2ccccc2)C(=O)N1C
26 | 2.53 ×10⁻⁶ cm/s | 17.5 ×10⁻⁶ cm/s | CC(C)C[C@@H]1NC(=O)[C@@H](CC(C)C)NC(=O)[C@@H](CC(C)C)NC(=O)[C@H](Cc2c[nH]c3ccccc23)NC(=O)[C@@H]2CCCN2C(=O)[C@@H](CC(C)C)NC1=O
27 | 0.07 ×10⁻⁶ cm/s | 0.63 ×10⁻⁶ cm/s | CC(C)C[C@H]1NC(=O)[C@H](Cc2ccccc2)NC(=O)CN(C)C(=O)[C@@H](C)N(C)C(=O)[C@H](Cc2ccc(O)cc2)NC(=O)[C@@H]2CCCN2C1=O
28 | 0.01 ×10⁻⁶ cm/s | 0.27 ×10⁻⁶ cm/s | CC(C)C[C@@H]1NC(=O)[C@H](Cc2ccccc2)NC(=O)CNC(=O)[C@H](C)NC(=O)[C@H](Cc2ccc(O)cc2)NC(=O)[C@H]2CCCN2C1=O
29 | 0.35 ×10⁻⁶ cm/s | 1.08 ×10⁻⁶ cm/s | CC(C)C[C@@H]1NC(=O)[C@H](Cc2ccccc2)N(C)C(=O)CN(C)C(=O)[C@H](C)NC(=O)[C@H](Cc2ccc(O)cc2)N(C)C(=O)[C@H]2CCCN2C1=O
30 |  | < 0.14 ×10⁻⁶ cm/s | CN1C(=O)[C@H]2CCCN2C(=O)[C@H](CCCCN)NC(=O)[C@H](CCCNC(=N)N)NC(=O)[C@@H](CCCNC(=N)N)NC(=O)[C@H](CCCNC(=N)N)NC(=O)[C@@H]1Cc1c[nH]c2ccccc12
31 | 0.29 ×10⁻⁶ cm/s | 1.04 ×10⁻⁶ cm/s | CC(C)C[C@@H]1NC(=O)[C@H](CC(C)C)N(C)C(=O)[C@H](Cc2ccc(O)cc2)NC(=O)[C@@H]2CCCN2C(=O)[C@H]2CCCN2C(=O)[C@@H](CC(C)C)NC1=O
32 | 0.04 ×10⁻⁶ cm/s | 0.11 ×10⁻⁶ cm/s | CC(C)C[C@@H]1NC(=O)[C@H](Cc2ccccc2)NC(=O)[C@H]([C@@H](C)O)NC(=O)CNC(=O)[C@H](C(C)C)NC(=O)[C@H](Cc2ccc(O)cc2)NC1=O (cyclo(FLYVGT))
33 | 3.28 ×10⁻⁶ cm/s |  | C=C[C@H]1C[N@@]2CC[C@H]1C[C@@H]2[C@@H](O)c1ccnc2ccc(OC)cc12 [QUINIDINE]
34 |  | 0.11 ×10⁻⁶ cm/s | CC[C@H](C)[C@@H]1NC(=O)[C@H](C(C)C)NC(=O)[C@H](CC(C)C)NC(=O)CNC(=O)[C@@H]2CCCN2C(=O)[C@H](Cc2ccc(O)cc2)NC1=O (cyclo(GLVIYP))
35 | 0.77 ×10⁻⁶ cm/s |  | CC(C)C[C@@H]1NC(=O)[C@@H](CC(C)C)N(C)C(=O)[C@H](CC(C)C)NC(=O)[C@H](Cc2ccc(O)cc2)NC(=O)[C@H]2CCCN2C(=O)[C@H](CC(C)C)NC1=O (cyclo(LL[dP]YL[dNMeL]))
36 |  | 1.7 ×10⁻⁶ cm/s | CC(C)C[C@@H]1NC(=O)[C@H](C(C)C)NC(=O)[C@H](Cc2c[nH]c3ccccc23)N(C)C(=O)[C@H](Cc2ccccc2)NC(=O)[C@H](Cc2ccccc2)NC(=O)[C@@H]2CCCN2C1=O (cyclo(FF[NMeW]VLP))
37 | 1.11 ×10⁻⁶ cm/s | 5.45 ×10⁻⁶ cm/s | CC(C)C[C@H]1NC(=O)[C@H](CC(C)C)N(C)C(=O)[C@H](CC(C)C)N(C)C(=O)[C@H](Cc2ccc(O)cc2)NC(=O)[C@@H]2CCCN2C(=O)[C@H]2CCCN2C1=O
38 | 0.09 ×10⁻⁶ cm/s | 0.1 ×10⁻⁶ cm/s | CC(C)C[C@@H]1NC(=O)[C@H](Cc2ccc(O)cc2)NC(=O)[C@@H]2CCCN2C(=O)[C@H]2CCCN2C(=O)[C@@H](CC(C)C)NC(=O)[C@H](CC(C)C)NC1=O
